Assay in all cases: biochemical
Holding throughout (design): KINOMEscan competition binding panel (Eurofins DiscoverX), single concentration, percent inhibition
Holding throughout (settings): read-out: 15 at 1 µM % inhibition

One test deals with PRKG1 (Homo sapiens, UniProt Q13976). In a few lines:
(§1)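 Compounds were submitted at 1 µM to a KINOMEscan assay covering more than 400 human kinases. The screen served to define the selectivity profile.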

In the next test the target is SGK2 (Homo sapiens, UniProt Q9HBY8). In a few lines:
as §1

The target in the next test is SGK3 (Homo sapiens, UniProt Q96BR1). In a few lines:
as §1

For a further test, the target named is T1, MINK (Homo sapiens, UniProt Q8N4C8).
T1 construct: gene MINK1
In a few lines:
as §1

The target in the next test is T2, TRKA (Homo sapiens, UniProt P04629).
T2 construct: gene NTRK1
T2 sequence (P04629 whole entry): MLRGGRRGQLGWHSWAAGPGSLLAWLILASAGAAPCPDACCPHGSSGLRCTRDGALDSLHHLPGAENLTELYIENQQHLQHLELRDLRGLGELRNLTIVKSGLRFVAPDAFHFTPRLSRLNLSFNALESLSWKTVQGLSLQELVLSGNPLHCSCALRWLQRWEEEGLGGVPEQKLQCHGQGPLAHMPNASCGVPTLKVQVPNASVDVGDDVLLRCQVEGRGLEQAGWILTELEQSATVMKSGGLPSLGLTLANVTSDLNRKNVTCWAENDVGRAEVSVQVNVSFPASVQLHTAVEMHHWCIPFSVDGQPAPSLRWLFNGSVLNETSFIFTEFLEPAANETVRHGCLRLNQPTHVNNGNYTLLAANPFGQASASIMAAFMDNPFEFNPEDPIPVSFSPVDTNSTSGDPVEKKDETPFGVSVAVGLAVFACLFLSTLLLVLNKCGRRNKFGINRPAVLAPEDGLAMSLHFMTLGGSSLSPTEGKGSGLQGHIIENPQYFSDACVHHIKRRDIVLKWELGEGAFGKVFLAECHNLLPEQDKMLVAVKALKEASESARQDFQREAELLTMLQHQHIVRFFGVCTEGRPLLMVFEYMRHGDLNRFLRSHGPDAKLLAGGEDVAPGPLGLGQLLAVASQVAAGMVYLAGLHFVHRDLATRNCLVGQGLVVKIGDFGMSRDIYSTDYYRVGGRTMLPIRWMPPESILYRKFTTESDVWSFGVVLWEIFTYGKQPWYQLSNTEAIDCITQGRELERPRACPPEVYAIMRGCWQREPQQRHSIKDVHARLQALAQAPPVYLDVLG
The essentials: as §1

The next test deals with PRKCH (Homo sapiens, UniProt P24723). The essentials:
as §1

Another test addresses TBK1 (Homo sapiens, UniProt Q9UHD2). The essentials: as §1
For a further test, the target named is FGFR2 (Homo sapiens, UniProt P21802). In a few lines: as §1
The target of another test is PIK3CA (Homo sapiens, UniProt P42336). In a few lines: as §1
A further test addresses ACVR1B (Homo sapiens, UniProt P36896). The essentials: as §1
In the next test the target is TLK1 (Homo sapiens, UniProt Q9UKI8). The essentials:
as §1

For test [1], the target named is T3, ABL1(F317I)-phosphorylated (Homo sapiens, UniProt P00519, F317I).
T3 construct: phosphorylated
The essentials:
as §1

In another test the target is PRKD3 (Homo sapiens, UniProt O94806). The essentials:
as §1

Another test has as its target T4, ERK8 (Homo sapiens, UniProt Q8TD08).
T4 construct: gene MAPK15
The essentials: as §1

The next test deals with MKNK2 (Homo sapiens, UniProt Q9HBH9). In a few lines:
as §1

A further test addresses T5, DRAK2 (Homo sapiens, UniProt O94768).
T5 construct: gene STK17B
In a few lines: as §1

Another test has as its target WNK1 (Homo sapiens, UniProt Q9H4A3). In a few lines:
as §1

For another test, the target named is T6, TAK1 (Homo sapiens, UniProt O43318).
T6 construct: gene MAP3K7
In a few lines: as §1

The target in a further test is T7, PCTK1 (Homo sapiens, UniProt Q00536).
T7 construct: gene CDK16
The essentials: as §1

The next test concerns the target T8, FAK (Homo sapiens, UniProt Q05397).
T8 construct: gene PTK2
In a few lines:
as §1

The next test deals with T9, DMPK2 (Homo sapiens, UniProt Q6DT37).
T9 construct: gene CDC42BPG
The essentials: as §1

Another test has as its target BMPR1A (Homo sapiens, UniProt P36894). The essentials: as §1
The target in a further test is T10, OSR1 (Homo sapiens, UniProt O95747).
T10 construct: gene OXSR1
In a few lines: as §1

In the next test the target is LIMK1 (Homo sapiens, UniProt P53667). The essentials:
as §1

Each structure is given as a SMILES string.

Data on 1 molecule can be found in publication PMC7180948, “New Insights into 4-Anilinoquinazolines as Inhibitors of Cardiac Troponin I–Interacting Kinase (TNNi3K)” (Molecules, 2020).

As a reminder, the inhibition is the percentage by which the read-out fell short of the control.

Chain of BMPR1A (P36894 whole entry): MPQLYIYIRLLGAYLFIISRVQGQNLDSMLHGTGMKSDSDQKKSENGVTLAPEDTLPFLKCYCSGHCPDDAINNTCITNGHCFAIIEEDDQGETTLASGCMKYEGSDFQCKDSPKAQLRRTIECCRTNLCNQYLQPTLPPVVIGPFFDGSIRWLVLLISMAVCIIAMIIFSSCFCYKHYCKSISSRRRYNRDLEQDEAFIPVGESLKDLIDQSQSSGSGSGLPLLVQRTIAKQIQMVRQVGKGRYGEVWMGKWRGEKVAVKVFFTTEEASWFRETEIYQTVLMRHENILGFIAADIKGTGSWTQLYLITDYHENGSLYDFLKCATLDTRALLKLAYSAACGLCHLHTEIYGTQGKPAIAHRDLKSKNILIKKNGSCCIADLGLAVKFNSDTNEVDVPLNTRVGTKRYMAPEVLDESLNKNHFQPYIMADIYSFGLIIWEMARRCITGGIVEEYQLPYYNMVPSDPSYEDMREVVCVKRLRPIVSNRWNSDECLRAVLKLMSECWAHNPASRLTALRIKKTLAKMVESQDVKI
Chain of PRKCH (P24723 whole entry): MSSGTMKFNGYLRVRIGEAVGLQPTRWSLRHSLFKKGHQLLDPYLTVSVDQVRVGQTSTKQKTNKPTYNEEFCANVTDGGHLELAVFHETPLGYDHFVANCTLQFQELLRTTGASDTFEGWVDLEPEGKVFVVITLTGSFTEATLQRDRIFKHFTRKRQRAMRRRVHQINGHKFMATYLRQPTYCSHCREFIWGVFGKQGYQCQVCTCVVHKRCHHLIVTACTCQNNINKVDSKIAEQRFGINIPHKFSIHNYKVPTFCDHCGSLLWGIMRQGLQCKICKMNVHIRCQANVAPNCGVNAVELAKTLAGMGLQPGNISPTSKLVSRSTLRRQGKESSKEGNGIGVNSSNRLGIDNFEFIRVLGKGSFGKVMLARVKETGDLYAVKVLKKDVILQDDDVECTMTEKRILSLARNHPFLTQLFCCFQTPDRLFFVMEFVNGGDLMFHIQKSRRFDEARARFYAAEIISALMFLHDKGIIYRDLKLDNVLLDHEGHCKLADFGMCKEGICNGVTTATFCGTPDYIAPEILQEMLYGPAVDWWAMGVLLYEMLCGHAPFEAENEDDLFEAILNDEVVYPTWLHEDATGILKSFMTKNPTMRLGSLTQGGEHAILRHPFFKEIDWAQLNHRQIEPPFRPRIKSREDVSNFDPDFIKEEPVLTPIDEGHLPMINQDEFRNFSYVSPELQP
Chain of TLK1 (Q9UKI8 whole entry): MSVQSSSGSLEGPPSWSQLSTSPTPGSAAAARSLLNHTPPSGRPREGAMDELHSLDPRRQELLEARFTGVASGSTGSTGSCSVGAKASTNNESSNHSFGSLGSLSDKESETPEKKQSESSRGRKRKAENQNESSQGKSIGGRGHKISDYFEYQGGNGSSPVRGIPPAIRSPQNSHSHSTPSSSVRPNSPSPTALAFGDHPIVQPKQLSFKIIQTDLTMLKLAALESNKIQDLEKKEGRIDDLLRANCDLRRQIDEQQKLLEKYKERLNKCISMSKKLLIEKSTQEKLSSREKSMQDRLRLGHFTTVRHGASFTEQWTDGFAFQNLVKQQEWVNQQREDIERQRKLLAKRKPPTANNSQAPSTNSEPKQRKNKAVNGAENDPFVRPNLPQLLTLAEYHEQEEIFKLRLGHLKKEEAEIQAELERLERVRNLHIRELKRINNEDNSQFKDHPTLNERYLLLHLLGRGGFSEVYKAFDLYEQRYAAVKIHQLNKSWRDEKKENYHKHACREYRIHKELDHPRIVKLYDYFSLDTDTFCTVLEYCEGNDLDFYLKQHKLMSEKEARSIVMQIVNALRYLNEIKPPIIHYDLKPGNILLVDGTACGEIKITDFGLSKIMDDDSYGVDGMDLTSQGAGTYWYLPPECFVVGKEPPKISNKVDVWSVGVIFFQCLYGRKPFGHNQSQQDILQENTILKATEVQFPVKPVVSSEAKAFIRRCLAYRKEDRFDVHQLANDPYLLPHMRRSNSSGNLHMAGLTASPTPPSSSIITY
Chain of PRKD3 (O94806 whole entry): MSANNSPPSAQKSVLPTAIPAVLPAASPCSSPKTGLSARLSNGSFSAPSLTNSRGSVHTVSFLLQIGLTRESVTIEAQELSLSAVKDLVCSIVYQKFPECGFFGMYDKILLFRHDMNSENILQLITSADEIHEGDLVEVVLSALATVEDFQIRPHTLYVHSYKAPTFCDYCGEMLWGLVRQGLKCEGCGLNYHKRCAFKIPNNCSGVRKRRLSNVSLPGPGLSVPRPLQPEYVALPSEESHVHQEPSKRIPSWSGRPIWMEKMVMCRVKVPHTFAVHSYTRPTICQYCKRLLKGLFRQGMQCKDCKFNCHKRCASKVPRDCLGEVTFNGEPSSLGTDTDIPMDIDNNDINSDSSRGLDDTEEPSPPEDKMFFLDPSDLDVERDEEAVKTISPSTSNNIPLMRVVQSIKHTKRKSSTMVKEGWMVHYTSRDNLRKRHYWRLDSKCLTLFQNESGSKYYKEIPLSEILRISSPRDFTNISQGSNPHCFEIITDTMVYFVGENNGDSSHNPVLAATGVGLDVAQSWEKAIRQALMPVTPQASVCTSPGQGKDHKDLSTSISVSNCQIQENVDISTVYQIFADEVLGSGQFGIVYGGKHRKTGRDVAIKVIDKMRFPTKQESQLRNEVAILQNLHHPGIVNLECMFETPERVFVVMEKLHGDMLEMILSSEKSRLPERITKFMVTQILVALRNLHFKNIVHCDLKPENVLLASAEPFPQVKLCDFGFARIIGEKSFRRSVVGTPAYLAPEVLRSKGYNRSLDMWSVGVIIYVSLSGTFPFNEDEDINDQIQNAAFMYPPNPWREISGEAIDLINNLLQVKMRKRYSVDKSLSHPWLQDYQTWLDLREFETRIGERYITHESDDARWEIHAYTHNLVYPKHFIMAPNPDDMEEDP
T5 sequence (O94768 whole entry): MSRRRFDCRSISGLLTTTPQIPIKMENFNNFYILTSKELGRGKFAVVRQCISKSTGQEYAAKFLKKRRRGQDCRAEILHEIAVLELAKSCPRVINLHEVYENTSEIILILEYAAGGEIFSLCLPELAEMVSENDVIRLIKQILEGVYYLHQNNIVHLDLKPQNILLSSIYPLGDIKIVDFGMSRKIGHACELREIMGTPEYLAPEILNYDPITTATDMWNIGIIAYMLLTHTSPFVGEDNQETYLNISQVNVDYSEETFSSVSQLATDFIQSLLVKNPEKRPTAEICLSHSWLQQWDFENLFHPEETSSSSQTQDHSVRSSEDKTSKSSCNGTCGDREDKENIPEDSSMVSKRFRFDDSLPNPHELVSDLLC
Chain of SGK3 (Q96BR1 whole entry): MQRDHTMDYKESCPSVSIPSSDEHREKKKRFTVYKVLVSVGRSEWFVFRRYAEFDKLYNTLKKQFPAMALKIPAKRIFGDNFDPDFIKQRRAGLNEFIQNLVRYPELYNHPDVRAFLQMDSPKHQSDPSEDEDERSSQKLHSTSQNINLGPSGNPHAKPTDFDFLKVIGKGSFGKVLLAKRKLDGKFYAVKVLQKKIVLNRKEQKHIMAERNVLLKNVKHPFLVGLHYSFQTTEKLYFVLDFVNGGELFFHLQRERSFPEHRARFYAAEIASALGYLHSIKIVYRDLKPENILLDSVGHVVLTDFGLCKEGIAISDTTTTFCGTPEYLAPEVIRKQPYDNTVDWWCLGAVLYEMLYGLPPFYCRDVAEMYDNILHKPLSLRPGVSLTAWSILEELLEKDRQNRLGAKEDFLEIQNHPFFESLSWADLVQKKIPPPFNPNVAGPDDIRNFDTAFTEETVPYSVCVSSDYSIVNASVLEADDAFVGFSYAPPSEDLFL
Chain of ACVR1B (P36896 whole entry): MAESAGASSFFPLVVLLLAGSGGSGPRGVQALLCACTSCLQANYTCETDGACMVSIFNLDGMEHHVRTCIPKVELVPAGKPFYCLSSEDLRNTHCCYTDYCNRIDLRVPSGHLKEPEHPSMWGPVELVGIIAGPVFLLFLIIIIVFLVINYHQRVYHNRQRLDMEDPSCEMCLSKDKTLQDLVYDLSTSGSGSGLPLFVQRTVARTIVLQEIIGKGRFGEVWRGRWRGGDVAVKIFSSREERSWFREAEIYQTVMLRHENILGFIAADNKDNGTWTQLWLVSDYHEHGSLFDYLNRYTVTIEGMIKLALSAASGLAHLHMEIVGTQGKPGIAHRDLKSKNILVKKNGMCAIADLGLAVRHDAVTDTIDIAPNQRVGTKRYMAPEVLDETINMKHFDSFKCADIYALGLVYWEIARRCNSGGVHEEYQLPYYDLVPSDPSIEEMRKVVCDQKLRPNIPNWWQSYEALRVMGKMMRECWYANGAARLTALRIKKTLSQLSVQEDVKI

In the case of `CNS(=O)(=O)c1ccc(N(C)C)c(Nc2nc(C)nc3cc(OC)c(OC)cc23)c1` [compound 15, 3-((6,7-dimethoxy-2-methylquinazolin-4-yl)amino)-4-(dimethylamino)-N-methylbenzenesulfonamide], the inhibition at 1 µM on PRKG1 was determined as 0%; at SGK2, 0%; at SGK3, 19%; at MINK, 22%; on TRKA it was 37%; on PRKCH, 0%. For the same molecule, the inhibition at 1 µM turned out to be 0% on TBK1; 0% at FGFR2; 13% on PIK3CA; 0% at ACVR1B; 9% on TLK1; 22% in test [1]. The inhibition at 1 µM at PRKD3 amounted to 0%; at ERK8 it was 0%; on MKNK2, 38%; on DRAK2, 0%; on WNK1 it was 22%; at TAK1, 24%. Further, the inhibition at 1 µM on PCTK1 is 22%; on FAK it was 0%; at DMPK2, 5%; on BMPR1A, 0%; on OSR1, 42%; on LIMK1 it was 0%.
